target: T1, Ba/F3 cell EGFR Exon20 ins NPH (Homo sapiens, UniProt P00533, INS773NPH); assay: Ba/F3 cell proliferation suppression, EGFR Exon20 ins NPH; assay type: cell-based; settings: GI50 class; Ba/F3 cell line with NPH inserted at Exon20 of EGFR; 72 hours
T1 construct: expressed in transfected cells; host or cells: Ba/F3
Summary of the method: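 72 h compound exposure, 0.3 nM–50 um (12 points, 3:1 dilution in DMSO); viability by CellTiter-Glo luminescence. Ba/F3 medium: RPMI-1640, 10% FBS, 5 ng/ml IL-3, 1 ug/ml puromycin for transduced cells. GI50 vs control, n=3.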

| SMILES | Ba/F3 (NPH) Activity |
| --- | --- |
| C=CC(=O)Nc1cc(Nc2cc(N3OCC[C@@H]3c3cccc4ccccc34)ncn2)c(OC)cc1N1CCC(N2CCN(C3COC3)CC2)CC1 [Example 198, N-(4-methoxy-5-((6-((R)-3-(naphthalene-1-yl)isoxazolidine-2-yl)pyrimidine-4-yl)amino)-2-(4-(4-(oxetane-3-yl)piperazine-1-yl)piperidine-1-yl)phenyl)acrylamide] | A (GI50 < 50 nM) |
| C=CC(=O)Nc1cc(Nc2cc(N3OCC[C@@H]3Cc3cccc(F)c3Cl)ncn2)c(OC)cc1N1CCC(N2CCN(C3CC3)[C@@H](C)C2)CC1 [compound 1037, N-(5-((6-((S)-3-(2-chloro-3-fluorobenzyl)isoxazolidine-2-yl)pyrimidine-4-yl)amino)-2-(4-((S)-4-cyclopropyl-3-methylpiperazine-1-yl)piperidine-1-yl)-4-methoxyphenyl) acrylamide] | A (GI50 < 50 nM) |
| C=CC(=O)Nc1cc(Nc2cc(N3OCC[C@@H]3c3ccc(F)c(Cl)c3)ncn2)c(OC)cc1N1CCN(CC)CC1 [compound 723, N-(5-((6-((R)-3-(3-chloro-4-fluorophenyl)isoxazolidine-2-yl)pyrimidine-4-yl)amino)-2-(4-ethylpiperazine-1-yl)-4-methoxyphenyl) acrylamide] | A (GI50 < 50 nM) |
| C=CC(=O)Nc1cc(Nc2cc(N3OCC[C@@H]3c3cccc(Cl)c3F)ncn2)c(OC)cc1N1CCC(N2CCN(C3CC3)C[C@H]2C)CC1 [Example 149, N-(5-((6-((R)-3-(3-chloro-2-fluorophenyl)isoxazolidine-2-yl)pyrimidine-4-yl)amino)-2-(4-((R)-4-cyclopropyl-2-methylpiperazine-1-yl)piperidine-1-yl)-4-methoxyphenyl) acrylamide] | A (GI50 < 50 nM) |
| C=CC(=O)Nc1cc(Nc2cc(N3OCC[C@@H]3c3ccc(F)c(Cl)c3F)ncn2)c(OC)cc1N1CCC(N(C)C)CC1 [compound 638, N-(5-((6-((R)-3-(3-chloro-2,4-difluorophenyl)isoxazolidine-2-yl)pyrimidine-4-yl)amino)-2-(4-(dimethylamino)piperidine-1-yl)-4-methoxyphenyl) acrylamide] | A (GI50 < 50 nM) |
| C=CC(=O)Nc1cc(Nc2cc(N3OCC[C@@H]3c3ccc(Cl)cc3)ncn2)c(OC)cc1N1CCC(N2CCN(C(C)C)CC2)CC1 [compound 807, N-(5-((6-((R)-3-(4-chlorophenyl)isoxazolidine-2-yl)pyrimidine-4-yl)amino)-2-(4-(4-isopropylpiperazine-1-yl)piperidine-1-yl)-4-methoxyphenyl) acrylamide] | A (GI50 < 50 nM) |
| C=CC(=O)Nc1cc(Nc2cc(N3OCC[C@@H]3c3ccc(Cl)cc3)ncn2)c(OC)cc1N1CCC(N2CC[C@H](N(C)C)C2)CC1 [compound 784, N-(5-((6-((R)-3-(4-chlorophenyl)isoxazolidine-2-yl)pyrimidine-4-yl)amino)-2-(4-((S)-3-(dimethylamino)pyrolidine-1-yl)piperidine-1-yl)-4-methoxyphenyl) acrylamide] | A (GI50 < 50 nM) |
| C=CC(=O)Nc1cc(Nc2cc(N3OCC[C@@H]3Cc3cc(F)cc(F)c3)ncn2)c(OC)cc1N1CCC(N2C[C@H]3C[C@@H]2CO3)CC1 [compound 1034, N-(2-(4-((1R,4R)-2-oxa-5-azabicyclo [2.2.1]heptane-5-yl)piperidine-1-yl)-5-((6-((S)-3-(3,5-difluorobenzyl)isoxazolidine-2-yl)pyrimidine-4-yl)amino)-4-methoxyphenyl) acrylamide] | A (GI50 < 50 nM) |
| C=CC(=O)Nc1cc(Nc2cc(N3OCC[C@H]3c3c(F)cccc3F)ncn2)c(OC)cc1N1CCC(N2CCN(C)[C@@H](C)C2)CC1 [compound 313, N-(5-((6-((S)-3-(2,6-difluorophenyl)isoxazolidine-2-yl)pyrimidine-4-yl)amino)-2-(4-((S)-3,4-dimethylpiperazine-1-yl)piperidine-1-yl)-4-methoxyphenyl) acrylamide] | C (500 nM ≤ GI50 < 5000 nM) |
| C=CC(=O)Nc1cc(Nc2cc(N3OCC[C@@H]3c3cccc(C#N)c3)ncn2)c(OC)cc1N1CCC(N2CCN(C3CC3)C[C@H]2C)CC1 [Example 131, N-(5-((6-((R)-3-(3-cyanophenyl)isoxazolidine-2-yl)pyrimidine-4-yl)amino)-2-(4-((R)-4-cyclopropyl-2-methylpiperazine-1-yl)piperidine-1-yl)-4-methoxyphenyl) acrylamide] | A (GI50 < 50 nM) |
| C=CC(=O)Nc1cc(Nc2cc(N3OCC[C@@H]3c3cc(F)cc(F)c3)ncn2)c(OC)cc1N1CCC(N2C[C@H](C)N(C3CC3)C[C@H]2C)CC1 [Example 107, N-(2-(4-((2R,5S)-4-cyclopropyl-2,5-dimethylpiperazine-1-yl)piperidine-1-yl)-5-((6-((R)-3-(3,5-difluorophenyl)isoxazolidine-2-yl)pyrimidine-4-yl)amino)-4-methoxyphenyl) acrylamide] | A (GI50 < 50 nM) |
| C=CC(=O)Nc1cc(Nc2cc(N3OCC[C@@H]3c3c(F)ccc(F)c3F)ncn2)c(OC)cc1N1CCC(N2CCN(C3CC3)CC2)CC1 [Example 169, N-(2-(4-(4-cyclopropylpiperazine-1-yl)piperidine-1-yl)-4-methoxy-5-((6-((R)-3-(2,3,6-trifluorophenyl)isoxazolidine-yl)pyrimidine-4-yl)amino)phenyl)acrylamide] | A (GI50 < 50 nM) |
| C=CC(=O)Nc1cc(Nc2cc(N3OCC[C@@H]3c3cccc(OC)c3)ncn2)c(OC)cc1N1CC[C@@H](N(C)C)C1 [compound 776, N-(2-((R)-3-(dimethylamino)pyrolidine-1-yl)-4-methoxy-5-((6-((R)-3-(3-methoxyphenyl)isoxazolidine-2-yl)pyrimidine-4-yl)amino)phenyl)acrylamide] | A (GI50 < 50 nM) |
| C=CC(=O)Nc1cc(Nc2cc(N3OCC[C@@H]3Cc3cccc(Cl)c3Cl)ncn2)c(OC)cc1N1CCC(N2CCN(C3CC3)CC2)CC1 [compound 1009, N-(2-(4-(4-cyclopropylpiperazine-1-yl)piperidine-1-yl)-5-((6-((S)-3-(2,3-dichlorobenzyl)isoxazolidine-2-yl)pyrimidine-4-yl)amino)-4-methoxyphenyl) acrylamide] | A (GI50 < 50 nM) |
| C=CC(=O)Nc1cc(Nc2cc(N3OCC[C@@H]3c3ccccc3)ncn2)c(OC)cc1N1CCC(N2C[C@@H]3C[C@H]2CN3CC)CC1 [compound 737, N-(2-(4-((1S,4S)-5-ethyl-2,5-diazabicyclo [2.2.1]heptane-2-yl)piperidine-1-yl)-4-methoxy-5-((6-((R)-3-phenylisoxazolidine-2-yl)pyrimidine-4-yl)amino)phenyl) acrylamide] | A (GI50 < 50 nM) |
| C=CC(=O)Nc1cc(Nc2cc(N3OCC[C@@H]3c3ccc(F)cc3F)ncn2)c(OC)cc1N1CCC(N2C[C@H]3C[C@@H]2CN3CC)CC1 [compound 425, N-(5-((6-((R)-3-(2,4-difluorophenyl)isoxazolidine-2-yl)pyrimidine-4-yl)amino)-2-(4-((1R,4R)-5-ethyl-2,5-diazabicyclo [2.2.1]heptane-2-yl)piperidine-1-yl)-4-methoxyphenyl) acrylamide] | A (GI50 < 50 nM) |
| C=CC(=O)Nc1cc(Nc2cc(N3OCC[C@@H]3c3cc(F)cc(F)c3)ncn2)cc(N2CCN(C)CC2)c1 [compound 633, N-(3-((6-((R)-3-(3,5-difluorophenyl)isoxazolidine-2-yl)pyrimidine-4-yl)amino)-5-(4-methylpiperazine-1-yl)phenyl)acrylamide] | B (50 nM ≤ GI50 < 500 nM) |
| C=CC(=O)Nc1cc(Nc2cc(N3OCC[C@@H]3c3cccc(C)c3F)ncn2)c(OC)cc1N1CCN(C2CC2)CC1 [compound 909, N-(2-(4-cyclopropylpiperazine-1-yl)-5-((6-((R)-3-(2-fluoro-3-methylphenyl)isoxazolidine-2-yl)pyrimidine-4-yl)amino)-4-methoxyphenyl) acrylamide] | A (GI50 < 50 nM) |
| C=CC(=O)Nc1cc(Nc2cc(N3OCC[C@@H]3c3cc(F)cc(Cl)c3F)ncn2)c(OC)cc1N1CCN(C2CC2)CC1 [compound 939, N-(5-((6-((R)-3-(3-chloro-2,5-difluorophenyl)isoxazolidine-2-yl)pyrimidine-4-yl)amino)-2-(4-cyclopropylpiperazine-1-yl)-4-methoxyphenyl) acrylamide] | B (50 nM ≤ GI50 < 500 nM) |
| C=CC(=O)Nc1cc(Nc2cc(N3OCC[C@@H]3c3cccc(Cl)c3C)ncn2)c(OC)cc1N1CCC(N2CC3CCC(C2)N3C2CC2)CC1 [Example 154, N-(5-((6-((R)-3-(3-chloro-2-methylphenyl)isoxazolidine-2-yl)pyrimidine-4-yl)amino)-2-(4-(8-cyclopropyl-3,8-diazabicyclo [3.2.1]octan-3-yl)piperidine-1-yl)-4-methoxyphenyl) acrylamide] | A (GI50 < 50 nM) |
| C=CC(=O)Nc1cc(Nc2cc(N3OCC[C@@H]3c3ccccc3)ncn2)c(OC)cc1N1CCC(N2CC[C@@H](N(C)C)C2)CC1 [compound 787, N-(2-(4-((R)-3-(dimethylamino)pyrolidine-1-yl)piperidine-1-yl)-4-methoxy-5-((6-((R)-3-phenylisoxazolidine-2-yl)pyrimidine-4-yl)amino)phenyl) acrylamide] | A (GI50 < 50 nM) |
| C=CC(=O)Nc1cc(Nc2cc(N3OCC[C@@H]3c3cccc(Cl)c3F)ncn2)c(OC)cc1N1CCC(N2CCN(C3CC3)C[C@@H]2C)CC1 [Example 150, N-(5-((6-((R)-3-(3-chloro-2-fluorophenyl)isoxazolidine-2-yl)pyrimidine-4-yl)amino)-2-(4-((S)-4-cyclopropyl-2-methylpiperazine-1-yl)piperidine-1-yl)-4-methoxyphenyl) acrylamide] | A (GI50 < 50 nM) |

From US12157730B2, “Heteroaryl derivative, method for producing same, and pharmaceutical composition comprising same as effective component” (VORONOI INC., priority 2019, dated 2024)
